Active and inactive are the calls of the source.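 How the source made its calls: active means EC50 no more than a set limit of log units above the highest dose; inactive means the rest.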
What follows are compounds tested against S. pyogenes SKKanGAS, kanamycin survival, BacTiterGlo, 6 h (assay: SKKanGAS survival reduction under kanamycin, dose response, streptokinase promoter inhibitor project, SKKanGAS strain, luminescence, dose confirmation (AID 1902);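 further: lower survival reflects blocked streptokinase promoter driving kanamycin resistance gene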).
`O=C(CSc1nnc(CNC(=O)c2ccccc2)o1)NCCc1ccccc1` was tested, and the EC50 was > 15000 nM (inactive).
In the case of `Cc1cc(O)c(C(C)C)cc1C1(c2cc(C(C)C)c(O)cc2C)OC(=O)c2ccccc21`, the EC50 is reported as 1800 nM.
`Cc1cc(C)cc(NS(=O)(=O)c2ccc(NC(=S)NC(=O)c3cccs3)cc2)c1` gave an EC50 of 6320 nM.
In the case of `CCOc1cccc(/C=N/NC(=O)c2ccc3c(c2)OCCO3)c1O`, the EC50 is reported as 1270 nM.
With `CCCOc1ccc(C(=O)NC(=S)N2CCN(c3cc4c(cc3F)c(=O)c(C(=O)O)cn4CC)CC2)cc1` the EC50 was 2340 nM.
`Cc1ccc(C(=O)Nc2nc(-c3ccccc3)c(-c3ccccc3)o2)cc1` was tested, and the EC50 was 541 nM.
For `CC(=O)Nc1nc2ccccc2n1CCOc1ccccc1`, the EC50 was 11300 nM.
With `CC/C(=C\C=C\[C@@H]1C=C[C@@H]2CCC[C@H]2[C@@H]1C(=O)c1ccc[nH]1)[C@@H]1O[C@@H]([C@@H](C)C(=O)O)CC[C@@H]1C` the EC50 was 127 nM.
With `O=C(NC(c1ccccc1)c1cc(Cl)c2cccnc2c1O)c1cccnc1` (configuration not stated) the EC50 was 1380 nM.
For `Cc1cc(NC(c2ccc(Cl)cc2)c2ccc3cccnc3c2O)no1` (configuration not stated), the EC50 was 602 nM.
For `Cc1noc(C)c1-c1nnc(-c2ccc(OC(F)(F)F)cc2)o1`, the EC50 was > 15000 nM (inactive).
With `Oc1ccc(N=Nc2ccc3c(c2)OCCO3)c2cccnc12` the EC50 was 257 nM.
Work on `Cc1ccc(S(=O)(=O)Nc2ccc(Cl)cc2)cc1NC(=O)c1cc2c(s1)CCCC2` yielded an EC50 of 6630 nM.
Work on `Cc1cccc(N=Nc2c(C)nn(-c3ccccc3)c2N)c1C` yielded an EC50 of 11800 nM.
Work on `Cc1cc(S(=O)(=O)NCCC2=CCCCC2)ccc1Br` yielded an EC50 of 5430 nM.
In the case of `CCc1nnc(NC(=O)c2ccc(S(=O)(=O)N(C)c3ccccc3)cc2)o1`, the EC50 is reported as 4710 nM.
Compound `N=C(N)c1ccc(/C=C/c2ccc(C(=N)N)cc2O)cc1` has an EC50 of 3340 nM.
`COc1ccc(O)c(CN2CCC(n3nccc3NC(=O)CCOc3ccccc3)CC2)c1` was tested, and the EC50 was > 15000 nM (inactive).
In the case of `Oc1c(Br)cc(Br)cc1CNc1ccc(F)cc1`, the EC50 is reported as 8890 nM.
Compound `Cc1nn(Cc2c(Cl)cccc2Cl)c(C)c1NC(=O)c1cn(-c2ccccc2)nc1-c1ccccc1` has an EC50 of 9330 nM.
Compound `O=C1C2=C(NC(=S)NC2c2ccc(Cl)cc2)NC(c2ccc(Cl)cc2)N1c1ccc(Cl)cc1` (configuration not stated) has an EC50 of 1930 nM.
With `Oc1c(Br)cc(Br)cc1/C=N/Nc1ccc(Cl)nn1` the EC50 was 481 nM.
With `CCOC(=O)c1[nH]c2ccc(F)cc2c1NC(=O)c1ccccc1C(=O)O` the EC50 was > 15000 nM (inactive).
`Cc1cc(C(=O)N/N=C/c2cc(Br)cc([N+](=O)[O-])c2O)c2ccccc2n1` was tested, and the EC50 was 893 nM.
In the case of `CC(C)(C)c1ccc(C(=O)NC(=S)NNC(=O)COc2ccccc2)cc1`, the EC50 is reported as less than 60 nM.
In the case of `Cc1cc(SCC(=O)N/N=C/c2ccc(O)c(O)c2O)c(C)cc1Br`, the EC50 is reported as 3110 nM.
`CN1C(=O)/C(=C/c2ccccc2F)Sc2ccc(C(=O)NCC3CCCO3)cc21` (configuration not stated) gave an EC50 of 1530 nM.
`COc1ccc(-c2nn(-c3ccccc3)cc2/C=C2/SC(=S)N(CCC(=O)O)C2=O)cc1` showed an EC50 of 1830 nM.
`CCOC(=O)c1ccc(-n2c(O)c(/C=N/NC(=O)C3COc4ccccc4O3)c3ccccc3c2=O)cc1` (configuration not stated) gave an EC50 of 1550 nM.
Compound `CCOc1cccc2sc(Nc3nc4ccc(NC(C)=O)cc4s3)nc12` has an EC50 of 4690 nM.
For `COc1cc(OC)c2cc(C(=O)N/N=C/c3ccccc3O)[nH]c2c1`, the EC50 was 1100 nM.
In the case of `COC(=O)c1cc(S(=O)(=O)n2nc(C)c(Br)c2C)c(Cl)cc1Cl`, the EC50 is reported as 1010 nM.
Compound `CCCCCCCCCCCC1=C(O)C(=O)C=C(O)C1=O` has an EC50 of 1670 nM.
In the case of `CCOC(=O)CC(NC(=O)CCS(=O)(=O)c1ccc2c(c1)n(C)c(=O)c(=O)n2C)c1ccc(C)cc1` (configuration not stated), the EC50 is reported as > 15000 nM (inactive).
`COc1ccc(S(=O)(=O)N2CCN=C2SCc2cccc(C)c2)cc1` was tested, and the EC50 was > 15000 nM (inactive).
`c1ccc2c(c1)ncn2CCCOc1ccc2c(c1)CCC2` showed an EC50 of 7490 nM.
Compound `CCOC(=O)N1CCN(C(=O)c2ccc3c(c2)N(C)C(=O)/C(=C\c2ccc(OCC)c(OC)c2)S3)CC1` has an EC50 of 593 nM.
`Cn1c(O)c(N=NC(=O)c2cc(-c3cccs3)nc3ccccc23)c2ccccc21` showed an EC50 of 2570 nM.
For `CCCCC(=O)NNC(=S)NC(=O)C(c1ccccc1)c1ccccc1`, the EC50 was 188 nM.
`O=C(COc1ccccc1)NNC(=S)NC(=O)c1ccc(Cl)cc1Cl` gave an EC50 of 361 nM.
Compound `CN1/C(=C\C(=O)Nc2ccc(Cl)cc2)C(C)(C)c2ccccc21` has an EC50 of 8640 nM.
With `CC1=C(C(=O)O)N2C(=O)C(NC(=O)Cc3ccccc3)C2SC1` (configuration not stated) the EC50 was 1030 nM.
`O=C(CN1c2ccccc2Sc2ccccc21)NNC(=O)Nc1cccc(Cl)c1` gave an EC50 of 4970 nM.
`CC(NC(=O)Nc1nnc(C(F)(F)F)s1)(C(F)(F)F)C(F)(F)F` gave an EC50 of 2970 nM.
`Cc1cccc(N2CCN(C(=O)c3cc4n(n3)C(C(F)(F)F)CC(c3ccco3)N4)CC2)c1C` (configuration not stated) was tested, and the EC50 was 4200 nM.
`CCc1ccc(S(=O)(=O)/N=C2\C=C(Nc3ccc(C(=O)O)cc3)C(=O)c3ccccc32)cc1` was tested, and the EC50 was 444 nM.
Work on `CC(=O)Nc1nc(NC(=O)/C=C/c2ccccc2)n(-c2ccccc2)n1` yielded an EC50 of 1740 nM.
`CCCCCCc1cc2cc(-c3nnc(-c4ccccc4)o3)c(=O)oc2cc1O` showed an EC50 of 3050 nM.
With `CC1(C)Cc2nc3sc4c(OCc5ccccc5)ncnc4c3cc2CO1` the EC50 was 4190 nM.
In the case of `CC(C)(C)c1ccc(C(=O)Nc2ccc(F)cc2)s1`, the EC50 is reported as > 15000 nM (inactive).
With `CC(C)COCc1ccc(O)c2ncccc12` the EC50 was 1020 nM.
`CC1Oc2cc3c(-c4c(O)cc(O)c5c(O)c6c(cc45)OC(C)C(C)C6=O)c(O)cc(O)c3c(O)c2C(=O)C1C` (configuration not stated) showed an EC50 of 319 nM.

— PubChem BioAssay AID1902 (Broad Institute, 2009)
